Experimental data: patent publication US4349378A, “Compounds useful as pesticides” (FBC Limited, priority 1978, dated 1982)

Assays:
Barley = test: (II) surface spray, growth regulatory or herbicidal effects; type: in vivo, Hordeum vulgare; conditions: 21 days, 100=complete suppression
Source text: (§1) (II) An aqueous suspension together with 1000 ppm of the wetting agent Lissapol NX. The surfaces of an additional set of pans with seeds already sown were then sprayed with 2.8 or 1.4 kg/ha in 450 liters/hectare, and the pans kept in the controlled environment room for 21 days.
(§2) The plants were then visually assessed for any growth regulatory or herbicidal effects. All differences from an untreated control were scored on a scale from 0-100, where 0 signifies no effect and 100 signifies complete suppression.
(§3) The results are shown in the following table where I stands for soil incorporation and II for surface spray.

Wheat = test: as above; type: in vivo, Triticum aestivum; conditions: 21 days, 100=complete suppression
Source text: as §1, §2, §3

Rice = test: as above; type: in vivo, Oryza sativa; conditions: 21 days, 100=complete suppression
Source text: as §1, §2, §3

Cotton = test: as above; type: in vivo, Gossypium sp.; conditions: 21 days, 100=complete suppression
Source text: as §1, §2, §3

Tomato = test: as above; type: in vivo, Lycopersicon esculentum; conditions: 21 days, 100=complete suppression
Source text: as §1, §2, §3

Carrot = test: as above; type: in vivo, Daucus carota; conditions: 21 days, 100=complete suppression
Source text: as §1, §2, §3

Fathen = test: (I) soil incorporation, growth regulatory or herbicidal effects; type: in vivo, Chenopodium album; conditions: I soil incorporation 6.5 ppm, 21 days, 100=complete suppression
Source text: (§4) (I) an attaclay/sand dust and incorporated in John Innes I potting compost at a rate equivalent to 6.5 and 3.25 parts per million weight/volume of active ingredient to soil and placed in anodised aluminium pans, 19 cm long×9.5 cm wide×5.0 cm high. This is approximately equivalent to a surface application of 2.8 and 1.4 kg active ingredient per hectare cultivated to a depth of 5 cm. Seeds of the species listed below were sown in the treated soil, one species per pan, watered and placed in a controlled environment room (22° C.; 65-85% relative humidity and 14 hours artificial illumination at 17000 lux) for 21 days.
as §2, §3

Chickweed = test: as above; type: in vivo, Stellaria media; conditions: I soil incorporation 6.5 ppm, 21 days, 100=complete suppression
Source text: as §4, §2, §3

acetylcholinesterase = test: standard test indicative of insecticidal activity, inhibition of acetylcholinesterase; type: biochemical; conditions: 100 micromolar
Barnyard Grass = test: (II) surface spray, growth regulatory or herbicidal effects; type: in vivo, Echinochloa crus-galli; conditions: II surface spray 1.4 kg/ha (line 3.25 ppm), 21 days, 100=complete suppression
Source text: as §1, §2, §3

Xanthomonas malvacearum = test: bacteriostatic test in dextrose nutrient broth; type: cell-based; conditions: 1,000 and 200 ppm weight/volume; 8 days at 25° C.
Procedure: A 1% suspension/solution of the product of Example 157 in polyethylene glycol (Carbowax 400) was added to a dextrose nutrient broth to give a concentration of 1,000 parts per million (ppm) weight/volume of medium. Dilution in test tubes was then carried out to give a concentration of 200 ppm weight/volume of medium. To 8 ml quantities of broth was added 0.2 ml of a dense broth culture of the bacterium causing black arm of cotton, Xanthomonas malvacearum. After 8 days incubation at 25° C., all the broth specimens were examined for signs of bacterial growth.

[1] = II surface spray 1.4 kg/ha (line 3.25 ppm)
[2] = II surface spray 2.8 kg/ha (line 6.5 ppm)

Row | Structure (SMILES) | growth regulatory or herbicidal effect score (Barley; [1]) | growth regulatory or herbicidal effect score (Barley; [2]) | growth regulatory or herbicidal effect score (Wheat; [1]) | growth regulatory or herbicidal effect score (Wheat; [2]) | growth regulatory or herbicidal effect score (Rice; [1]) | growth regulatory or herbicidal effect score (Rice; [2]) | growth regulatory or herbicidal effect score (Cotton; [1]) | growth regulatory or herbicidal effect score (Cotton; [2]) | growth regulatory or herbicidal effect score (Tomato; [1]) | growth regulatory or herbicidal effect score (Tomato; [2]) | growth regulatory or herbicidal effect score (Carrot; [1]) | growth regulatory or herbicidal effect score (Carrot; [2]) | growth regulatory or herbicidal effect score (Fathen) | growth regulatory or herbicidal effect score (Chickweed) | inhibition of acetylcholinesterase (acetylcholinesterase) | growth regulatory or herbicidal effect score (Barnyard Grass) | bacterial growth (Xanthomonas malvacearum)
1 | CCS(=O)(=O)N(CC(N)=S)c1ccc(Cl)c(Cl)c1 [Example 156] | 0 | 0 | 0 | 0 | 0 | 0 | 0 | 0 | 0 | 0 | – | – | – | – | – | – | –
2 | Cc1ccc(N(CC#N)S(C)(=O)=O)cc1Cl [Example 131] | 0 | 0 | 0 | 0 | 0 | 0 | 0 | 0 | 0 | 0 | 0 | 0 | – | – | – | – | –
3 | CCOC(=O)C(CC)N(c1c(C)cccc1C)S(C)(=O)=O (centres unmarked) [Example 95] | – | – | – | – | – | – | – | – | – | – | – | – | 100 | 90 | – | – | –
4 | CNC(=O)ON=C(C)CN(c1c(C)cccc1C)S(C)(=O)=O [Example 248, N-[2-(methylcarbamoyloxyimino)propyl]-2',6'-dimethylmethanesulphonanilide] | – | – | – | – | – | – | – | – | – | – | – | – | – | – | 30% | – | –
5 | CCS(=O)(=O)N(CC#N)c1ccc(Cl)c(Cl)c1 [Example 137] | 0 | 0 | 0 | 0 | 0 | 0 | 0 | 0 | 0 | 0 | 0 | 0 | – | – | – | 90 | –
6 | CS(=O)(=O)N(CC(N)=S)c1ccc(Cl)c(Cl)c1 [Example 85, N-(thiocarbamoylmethyl)-3,4-dichloromethanesulphonanilide] | 0 | 0 | 0 | 0 | 0 | 0 | 0 | 0 | 0 | 0 | 0 | 0 | – | – | – | 90 | –
7 | CS(=O)(=O)N(CC(N)=S)c1cccc(Cl)c1Cl [Example 157] | – | – | – | – | – | – | – | – | – | – | – | – | – | – | – | – | No growth
8 | Cc1ccc(N(CC(N)=S)S(C)(=O)=O)cc1Cl [Example 150] | 0 | 0 | 0 | 0 | 0 | 0 | 0 | 0 | 0 | 0 | – | – | – | – | – | – | –
